The text below walks through data of patent publication US12421225B2, “Heteroaromatic amide derivative and medicament containing the same” (KAKEN PHARMACEUTICAL CO., LTD., priority 2018, dated 2025).

Where only a bound is given, the exact number is not on record here.

This assay deals with human Nav1.7 (Homo sapiens (Human), UniProt Q15858). In words: Human Nav1.7 inhibitory activity evaluation (automated patch clamp QPatch16X, HEK293A cells stably expressing human Nav1.7 and human Navβ1). Type of assay: cell-based. As to the method: Test Example 1: Human Nav1.7 Inhibitory Activity Evaluation
Sequence of human Nav1.7 (Q15858 whole entry): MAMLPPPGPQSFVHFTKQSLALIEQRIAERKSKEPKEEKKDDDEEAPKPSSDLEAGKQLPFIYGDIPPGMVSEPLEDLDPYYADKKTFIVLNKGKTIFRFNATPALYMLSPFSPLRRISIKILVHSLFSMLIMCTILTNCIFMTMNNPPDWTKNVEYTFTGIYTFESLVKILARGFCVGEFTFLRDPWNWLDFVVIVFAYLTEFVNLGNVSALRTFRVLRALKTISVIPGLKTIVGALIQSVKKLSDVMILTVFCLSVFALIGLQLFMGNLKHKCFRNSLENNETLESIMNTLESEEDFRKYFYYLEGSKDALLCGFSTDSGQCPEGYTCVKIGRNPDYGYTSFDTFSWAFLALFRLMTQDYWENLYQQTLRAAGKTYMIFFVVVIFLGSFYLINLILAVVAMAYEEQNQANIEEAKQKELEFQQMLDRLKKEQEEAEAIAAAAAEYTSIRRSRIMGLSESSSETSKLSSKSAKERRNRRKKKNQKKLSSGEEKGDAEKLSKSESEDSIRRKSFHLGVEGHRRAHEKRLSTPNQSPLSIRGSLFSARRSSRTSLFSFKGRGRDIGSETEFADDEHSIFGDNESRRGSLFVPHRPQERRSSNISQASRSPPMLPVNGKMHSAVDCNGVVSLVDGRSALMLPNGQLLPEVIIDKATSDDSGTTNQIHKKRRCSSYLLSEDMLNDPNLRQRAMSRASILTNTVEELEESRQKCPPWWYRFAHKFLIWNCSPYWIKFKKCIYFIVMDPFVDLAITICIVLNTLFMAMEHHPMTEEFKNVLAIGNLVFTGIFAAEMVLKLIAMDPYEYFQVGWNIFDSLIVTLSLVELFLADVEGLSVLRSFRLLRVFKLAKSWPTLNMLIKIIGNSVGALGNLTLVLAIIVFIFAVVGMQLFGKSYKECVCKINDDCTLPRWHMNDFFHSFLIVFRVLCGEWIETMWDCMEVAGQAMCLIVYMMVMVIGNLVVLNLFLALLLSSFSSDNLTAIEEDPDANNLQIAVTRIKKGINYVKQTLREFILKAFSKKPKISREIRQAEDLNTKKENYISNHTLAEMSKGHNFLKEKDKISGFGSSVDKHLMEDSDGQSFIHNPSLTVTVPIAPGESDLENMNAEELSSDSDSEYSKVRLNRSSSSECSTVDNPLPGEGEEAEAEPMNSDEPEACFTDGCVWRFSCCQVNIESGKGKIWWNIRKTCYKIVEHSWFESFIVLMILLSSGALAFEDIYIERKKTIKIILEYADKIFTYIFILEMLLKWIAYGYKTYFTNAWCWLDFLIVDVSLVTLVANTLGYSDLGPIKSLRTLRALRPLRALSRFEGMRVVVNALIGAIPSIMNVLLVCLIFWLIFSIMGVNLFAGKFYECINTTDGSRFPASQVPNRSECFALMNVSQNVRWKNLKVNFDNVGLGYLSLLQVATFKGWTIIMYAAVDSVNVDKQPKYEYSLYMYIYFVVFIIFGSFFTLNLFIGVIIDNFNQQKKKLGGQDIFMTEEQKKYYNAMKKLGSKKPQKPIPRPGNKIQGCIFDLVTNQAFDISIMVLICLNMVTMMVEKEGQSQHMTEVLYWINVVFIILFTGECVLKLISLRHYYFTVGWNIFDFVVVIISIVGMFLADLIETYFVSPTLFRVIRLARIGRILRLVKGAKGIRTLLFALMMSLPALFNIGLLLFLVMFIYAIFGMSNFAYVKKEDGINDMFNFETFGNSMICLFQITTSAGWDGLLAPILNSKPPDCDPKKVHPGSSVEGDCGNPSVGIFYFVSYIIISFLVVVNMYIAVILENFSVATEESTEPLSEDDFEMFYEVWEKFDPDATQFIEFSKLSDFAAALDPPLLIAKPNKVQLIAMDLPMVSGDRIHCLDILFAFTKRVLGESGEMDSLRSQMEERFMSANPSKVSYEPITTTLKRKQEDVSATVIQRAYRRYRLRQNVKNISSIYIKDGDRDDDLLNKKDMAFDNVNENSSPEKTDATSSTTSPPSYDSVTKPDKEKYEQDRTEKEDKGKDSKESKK
Sequence of human Nav1.7 (Q07699 19-218 partner): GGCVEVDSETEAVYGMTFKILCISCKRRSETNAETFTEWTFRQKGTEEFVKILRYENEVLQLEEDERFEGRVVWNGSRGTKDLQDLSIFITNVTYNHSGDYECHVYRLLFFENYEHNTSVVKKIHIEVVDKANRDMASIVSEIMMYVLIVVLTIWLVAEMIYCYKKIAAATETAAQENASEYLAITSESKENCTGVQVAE
A cell line in which human Nav1.7 and human Navβ1 subunits were stably expressed in HEK293A cells was used. Dulbecco's Modified Eagle Medium (DMEM) supplemeted with 10% fetal bovine serum, 600 μg/ml geneticin, and 2 μg/ml blasticidin S were used as culture medium under the conditions of 37° C. and 5% CO2 in T175 flasks to carry out culturing. When 60-80% confluence was reached, the cells were detached and a cell suspension of about 0.5-5.0×10^6 cells/mL was prepared. The amount of current through human Nav1.7 was recorded using a fully automatic patch clamp device QPatch16X (Sophion Biosciences) at room temperature. As the extracellular solution, the solution of 145 mM NaCl, 4 mM KCl, 1 mM MgCl2, 2 mM CaCl2, 10 mM Glucose, 10 mM 4-(2-hydroxyethyl)-1-piperazine ethanesulfonic acid (HEPES) at pH 7.4 was used. As the intracellular solution, the solution of 135 mM CsF, ⅕ mM glycol ether diaminetetraacetic acid (EGTA)/CsOH, 10 mM HEPES, 10 mM NaCl at pH 7.3 was used. The test compounds were dissolved in dimethyl sulfoxide (DMSO) and diluted with the extracellular solution to attain the DMSO concentration of 0.1% at the time of assay.
The current response was obtained at a sampling frequency of 25 kHz, and noise was removed with a 3 kHz low-pass filter. The holding potential was −100 mV. Correction of the leakage current was carried out by applying a step pulse of −120 mV before the test pulse. In order to investigate inhibitory action of the test compound, the following test pulse was given: Namely, after depolarizing pulse of −10 mV was applied for 50 milliseconds, it was fixed at −120 mV for 500 milliseconds; a potential at which about 30-40% of the channel was inactivated was maintained for 15 seconds, then fixed again at −120 mV for 100 milliseconds, and finally a −10 mV depolarization pulse was given for 50 milliseconds. Test pulses were given before and after the test compound addition.
The inhibitory activity of the test compound was determined based on the amount of inward current generated by the second depolarization pulse, and the 50% inhibitory concentration (IC50) was calculated from the concentration-response curve.
In general terms: In patch-clamp work, channel activity is measured electrically.

Where [1] appears, read: human Nav1.7, automated patch clamp.
Setting [2] is: HEK293A cells stably expressing human Nav1.7 and human Navβ1, automated patch clamp QPatch16X.

As usually defined, the IC50 is the concentration that inhibits the measured activity by half. In the case of `N#CC1(COCC2CCn3nc(C(=O)N[C@H]4COc5ccc(C(F)(F)F)cc5C4)cc3O2)CC1` (single isomer, unassigned) [554 (isomer B)], the IC50 under setting [1] is less than 10 µM.
`O=C(N[C@H]1COc2ccc(C(F)(F)F)cc2C1O)c1cc2n(n1)CC(CCOCC(F)(F)F)O2` (single isomer, unassigned) [600 (isomer A)] came in with an IC50 under setting [1] of less than 10 µM.
On to `O=C(N[C@H]1COc2ccc(CC(F)F)cc2C1)c1cc2n(n1)CCC(COCC(F)(F)F)CO2` (single isomer, unassigned) [601 (isomer A)], for which the IC50 under setting [1] is less than 10 µM.
In the case of `O=C(N[C@H]1COc2ccc(C(F)(F)F)cc2C1O)c1cc2n(n1)CC(CCCOCC(F)(F)F)O2` (single isomer, unassigned) [603 (isomer A)], the IC50 under setting [1] was less than 1 µM.
On the same count and under the same terms, the same measure for `N#Cc1ccc2c(c1)C[C@@H](NC(=O)c1cc3n(n1)CC(CCCOCC(F)F)O3)CO2` (single isomer, unassigned) [604 (isomer B)]: less than 10 µM.
As for `O=C(N[C@H]1COc2ccc(C(F)(F)F)cc2C1O)c1cc2n(n1)CC(CCCOCC(F)F)O2` (single isomer, unassigned) [610 (isomer B)], under setting [1], the IC50 was less than 10 µM.
On the same count and under the same terms, the same measure for `O=C(N[C@H]1COc2ccc(C(F)(F)F)cc2C1O)c1cc2n(n1)CC(CCCOCC(F)(F)F)O2` (single isomer, unassigned) [616 (isomer B)]: less than 10 µM; for `N#Cc1ccc2c(c1)C(F)[C@@H](NC(=O)c1cc3n(n1)CCC(COCC1CC1)O3)CO2` (single isomer, unassigned) [617 (isomer B)]: less than 10 µM.
Take `O=C(N[C@H]1COc2ccc(C(F)(F)F)cc2C1O)c1cc2n(n1)CC(CCOCC1CC1)O2` (single isomer, unassigned) [636 (isomer A)]: the IC50 under setting [1] is less than 1 µM.
On the same count and under the same terms, with `O=C(N[C@H]1COc2ccc(C(F)(F)F)cc2C1O)c1cc2n(n1)CC(CSCC(F)(F)F)O2` (single isomer, unassigned) [641 (isomer A)] the figure was less than 10 µM; with `O=C(N[C@H]1COc2ccc(C(F)(F)F)cc2C1O)c1cc2n(n1)CCC(OCCOCC(F)(F)F)CO2` (single isomer, unassigned) [Example 681], less than 10 µM.
On to `N#Cc1ccc2c(c1)C[C@@H](NC(=O)c1cc3n(n1)C[C@H](CC1CCOCC1)O3)CO2` (single isomer, unassigned; isomer a) [577(isomer A)], for which the IC50 under setting [1] was less than 10 µM.
Still for that read-out and setting: with `O=C(N[C@H]1COc2ccc(CC(F)F)cc2C1)c1cc2n(n1)C[C@H](CC1CCOCC1)O2` (single isomer, unassigned; isomer a) [590(isomer A)] the figure was less than 1 µM.
As to `COC1c2cc(C(F)(F)F)ccc2OC[C@@H]1NC(=O)c1cc2n(n1)CCC(COCC(F)(F)F)O2` (single isomer, unassigned; isomer a) [598(isomer A)], the IC50 under setting [1] is less than 1 µM.
Molecule `O=C(NC1COc2cccc(C3CC3)c2C1)c1cn2c(n1)CCC(C(F)(F)F)C2` (stereo not drawn) [Example 10] yielded an IC50 under setting [2] of less than 10 µM.
The molecule `COc1ccc2c(c1)CC(NC(=O)c1cn3c(n1)CCC(C(F)(F)F)C3)CO2` (stereo not drawn) [Example 13] displayed an IC50 under setting [2] of less than 10 µM.
In turn, `COc1cccc(-c2c(C(=O)N[C@H]3COc4ccccc4C3)nc3n2CC(C(F)(F)F)CC3)n1` (stereo partly drawn) [Example 15] came in with an IC50 under setting [2] of less than 1 µM.
`O=C(N[C@H]1COc2ccc(Cl)cc2C1)c1nc2n(c1-c1ccccn1)CCCC2` [Example 18, (R)—N-(6-chlorochroman-3-yl)-3-(pyridin-2-yl)-5,6,7,8-tetrahydroimidazo[1,2-a]pyridine-2-carboxamide] returned an IC50 under setting [2] of less than 1 µM.
The same measure, in the same setting: with `O=C(N[C@H]1COc2ccccc2C1)c1cn2c(n1)CCC(C1CCCC1)C2` (stereo partly drawn) [Example 24] the figure was less than 1 µM.
Same read-out and setting: the same measure for `O=C(c1cn2c(n1)CCC(C1CCCCC1)C2)N1CCC1Cc1ccccc1` (stereo not drawn) [Example 31]: less than 1 µM; for `O=C(N[C@H]1COc2ccccc2C1)c1cn2c(n1)CCC(NCc1ccccc1)C2` (stereo partly drawn) [Example 42]: less than 10 µM; for `CN1Cc2nc(C(=O)N[C@H]3COc4ccccc4C3)cn2CC1c1ccc(F)c(F)c1` (stereo partly drawn) [Example 45]: less than 10 µM.
In turn, `CC(C)CCC1Cn2cc(C(=O)N[C@H]3COc4ccccc4C3)nc2CN1C` (stereo partly drawn) [Example 50] registered an IC50 under setting [2] of less than 10 µM.
As to `O=C(N[C@H]1COc2ccccc2C1)c1cn2c(n1)CNC(CCc1ccc(F)cc1)C2` (stereo partly drawn) [Example 53], the IC50 under setting [2] is less than 10 µM.
In the case of `CN1Cc2nc(C(=O)N[C@H]3COc4ccccc4C3)cn2CC1CCc1ccc(F)cc1` (stereo partly drawn) [Example 54], the IC50 under setting [2] was less than 10 µM.
Same read-out and setting: the same measure for `O=C(N[C@H]1COc2ccccc2C1)c1cn2c(n1)CNC(c1ccccc1)C2` (stereo partly drawn) [Example 56]: less than 10 µM; for `CN1Cc2nc(C(=O)N3CC(Oc4cccc(C(F)(F)F)n4)C3)cn2CC1c1ccccc1` (stereo not drawn) [Example 63]: less than 10 µM.
Same read-out and setting: with `COc1cccc(-c2c(C(=O)N[C@H]3COc4ccccc4C3)nn3c2CCCC3)n1` [Example 69] the figure was less than 10 µM; with `COc1cc(C2CCn3nc(C(=O)N[C@H]4COc5ccc(C#N)cc5C4)cc3O2)ccn1` (stereo partly drawn) [Example 73], less than 10 µM; with `O=C(N[C@H]1COc2ccc(CO)cc2C1)c1cc2n(n1)CCC(c1ccccc1F)O2` (stereo partly drawn) [Example 82], less than 10 µM.
Under setting [2], `C[C@H]1CCn2nc(C(=O)N[C@H]3COc4ccc(Br)cc4C3)cc2O1` [Example 88] had an IC50 of less than 1 µM.
The molecule `C[C@@H]1CCn2nc(C(=O)N[C@H]3COc4ccc(Br)cc4C3)cc2O1` [Example 89] registered an IC50 under setting [2] of less than 1 µM.
On the same count and under the same terms, with `CCC1CCn2nc(C(=O)N[C@H]3COc4ccc(-c5cnc(OC)nc5)cc4C3)cc2O1` (stereo partly drawn) [Example 93] the figure was less than 1 µM; with `N#Cc1ccc2c(c1)C[C@@H](NC(=O)c1cc3n(n1)CCC(COCc1ccccc1)O3)CO2` (stereo partly drawn) [Example 99], less than 1 µM; with `N#Cc1ccc2c(c1)C[C@@H](NC(=O)c1cc3n(n1)CCC(COCc1cccc(F)c1)O3)CO2` (stereo partly drawn) [Example 104], less than 1 µM.
The molecule `O=C(N[C@H]1COc2ccc(Cl)cc2C1)c1cc2n(n1)CCC(COCC1CC1)O2` (stereo partly drawn) [Example 106] came in with an IC50 under setting [2] of less than 1 µM.
For the molecule `N#Cc1ccc(-c2ccc3c(c2)C[C@@H](NC(=O)c2cc4n(n2)CCC(COCC2CC2)O4)CO3)cn1` (stereo partly drawn) [Example 107], under setting [2], the IC50 was less than 10 µM.
In turn, `N#Cc1ccc2c(c1)C[C@@H](NC(=O)c1cc3n(n1)CCC(COC(C(F)(F)F)C(F)(F)F)O3)CO2` (stereo partly drawn) [Example 116] came in with an IC50 under setting [2] of less than 1 µM.
Still for that read-out and setting: with `N#Cc1ccc2c(c1)C[C@@H](NC(=O)c1cc3n(n1)CCC(CSc1ccccc1)O3)CO2` (stereo partly drawn) [Example 119] the figure was less than 1 µM; with `O=C(N[C@H]1COc2ccc(Cl)cc2C1)c1cc2n(n1)CCC(COc1ccncc1)O2` (stereo partly drawn) [Example 120], less than 10 µM.
On the same count and under the same terms, the same measure for `CN(Cc1ccccc1)CC1CCn2nc(C(=O)N[C@H]3COc4ccc(Cl)cc4C3)cc2O1` (stereo partly drawn) [Example 121]: less than 10 µM.
Same read-out and setting: with `N#Cc1ccc(-c2ccc3c(c2)C[C@@H](NC(=O)c2cc4n(n2)CCC(COCC(F)(F)F)O4)CO3)cn1` (stereo partly drawn) [Example 132] the figure was less than 10 µM.
Turning to `CC(C)(F)C1CCn2nc(C(=O)N[C@H]3COc4ccc(Cl)cc4C3)cc2O1` (stereo partly drawn) [Example 166], under setting [1], the IC50 was less than 1 µM.
For the molecule `COc1ncc(-c2ccc3c(c2)C[C@@H](NC(=O)c2cc4n(n2)CCC(C(F)(F)F)O4)CO3)cn1` (stereo partly drawn) [Example 176], the IC50 under setting [1] was less than 10 µM.
Turning to `CC1(C)CCn2nc(C(=O)N[C@H]3COc4ccc(-c5ccc(C#N)nc5)cc4C3)cc2O1` [Example 179], the IC50 under setting [1] is less than 10 µM.
